Active and inactive are the calls of the source. The rule behind the calls is not given here.
Legend:
[1] = biological target: T1, Proteasome subunit beta type-10 (Homo sapiens, UniProt P40306); test: Inhibition of human proteasome subunit beta type-2i using fluorogenic substrate by UV-spectrometry
T1 sequence (P40306 whole entry): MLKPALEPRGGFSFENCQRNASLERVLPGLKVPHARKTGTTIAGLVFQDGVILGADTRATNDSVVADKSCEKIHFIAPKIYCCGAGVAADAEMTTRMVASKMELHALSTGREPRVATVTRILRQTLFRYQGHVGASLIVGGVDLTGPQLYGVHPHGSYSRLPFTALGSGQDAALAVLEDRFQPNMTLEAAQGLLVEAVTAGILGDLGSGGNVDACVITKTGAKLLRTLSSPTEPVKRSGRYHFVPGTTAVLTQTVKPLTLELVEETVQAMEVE

[2] = biological target: T2, Proteasome subunit beta type-8 (Homo sapiens, UniProt P28062); test: Inhibition of human proteasome subunit beta type-5i using fluorogenic substrate by UV-spectrometry
T2 sequence (P28062 whole entry): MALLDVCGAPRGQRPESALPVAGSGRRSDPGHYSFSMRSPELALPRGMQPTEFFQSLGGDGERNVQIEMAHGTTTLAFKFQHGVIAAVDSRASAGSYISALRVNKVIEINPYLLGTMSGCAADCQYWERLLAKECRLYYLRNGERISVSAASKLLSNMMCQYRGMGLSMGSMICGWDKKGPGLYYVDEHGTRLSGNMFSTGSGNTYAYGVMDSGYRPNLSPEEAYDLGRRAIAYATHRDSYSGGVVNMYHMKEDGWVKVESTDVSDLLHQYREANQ

[3] = biological target: T3, Proteasome subunit beta type-9 (Homo sapiens, UniProt P28065); test: Inhibition of human proteasome subunit beta type-1i in using fluorogenic substrate by UV-spectrometry
T3 sequence (P28065 whole entry): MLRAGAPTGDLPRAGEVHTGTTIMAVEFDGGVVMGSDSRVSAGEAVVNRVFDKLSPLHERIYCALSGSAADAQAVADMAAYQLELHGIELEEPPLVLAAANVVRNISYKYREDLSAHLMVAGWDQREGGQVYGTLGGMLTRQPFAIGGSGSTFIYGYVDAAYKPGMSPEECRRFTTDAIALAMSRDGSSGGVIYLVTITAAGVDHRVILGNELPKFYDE

HeLa [4] = test: Inhibition of UPS-mediated proteolysis in human HeLa cells expressing ODD-luciferase assessed as increase in luminescence at 2 to 16 uM using D-luciferin as substrate incubated for 4 hrs by luciferase reporter gene assay; type: cell-based; settings: dose 2-16 µM
HeLa [5] = test: Cytotoxicity against human HeLa cells expressing ODD-luciferase at 16 uM by MTT assay; type: toxicity, cell-based
[6] = biological target: T4, Proteasome Macropain subunit MB1 (Homo sapiens, UniProt P28074); test: Inhibition of human constitutive proteasome subunit beta type-5 in human erythrocytes using fluorogenic substrate by UV-spectrometry; type: cell-based, Erythrocyte
T4 sequence (P28074 whole entry): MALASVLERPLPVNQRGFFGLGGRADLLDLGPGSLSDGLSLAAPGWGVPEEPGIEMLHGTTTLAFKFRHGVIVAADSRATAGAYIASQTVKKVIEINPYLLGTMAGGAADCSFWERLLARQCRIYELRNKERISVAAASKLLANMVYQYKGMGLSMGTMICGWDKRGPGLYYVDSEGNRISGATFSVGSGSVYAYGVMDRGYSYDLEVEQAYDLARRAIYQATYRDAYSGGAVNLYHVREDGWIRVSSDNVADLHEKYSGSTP

HeLa [7] = test: Inhibition of UPS-mediated proteolysis in human HeLa cells assessed as increase in ubiquitinated proteins at 2 to 24 uM incubated for 24 hrs by western blot analysis; type: cell-based; settings: dose 2-24 µM
HeLa [8] = test: Inhibition of UPS-mediated proteolysis in human HeLa cells expressing ODD-luciferase assessed as fold change in increase in luminescence at 2 uM using D-luciferin as substrate incubated for 4 hrs by luciferase reporter gene assay; type: cell-based

Row | Structure (SMILES) | IC50 [1] [µM] | IC50 [2] [µM] | IC50 [3] [µM] | inhibition (HeLa [4]) | Activity (HeLa [5]) | IC50 [6] [µM] | inhibition (HeLa [7]) | fold change (FC) (HeLa [8])
1 | CCC(C)/C=C(\C)c1cc2c(cn1)C(=O)C1=C(N)C(=O)C(OC)=CC1=C2 (centres undefined) | 33 | 20 | > 50 | Active | Toxic | 22 | – | –
2 | CCC(C)/C=C(\C)c1cc2c(cn1)C(=O)c1c(cc(OC)c(O)c1O)C2=O (centres undefined) | 43 | 40 | > 50 | – | – | 16 | – | –
3 | CCC(C)/C=C(\C)C1=Cc2cc3c(c(O)c2CO1)C(=O)C(O)(CC(C)=O)C(OC)=C3 (centres undefined) | 30 | 50 | > 50 | Active | – | 46 | – | –
4 | CCC(C)/C=C(\C)C1=Cc2cc3c(c(O)c2CO1)C(=O)C(=O)C(OC)=C3 (centres undefined) | – | – | – | Active | Toxic | – | Active | 2.5

From ChEMBL document CHEMBL5131452, “Cell-based screening of extracts of natural sources to search for inhibitors of the ubiquitin-proteasome system and identification of proteasome inhibitors from the fungus Remotididymella sp” (Bioorg Med Chem Lett, 2022)
